In the OligoGym collection:
Where “and” joins values, the source holds several entries; their conditions need not be identical. Equal values may be shown once. HELM strings list units from the 5' end as sugar, base in round brackets, then linkage (d deoxyribose, r ribose, m 2'-O-methyl, p phosphodiester). Methylation of C is not given here. [moe] = 2'-O-(2-methoxyethyl) (MOE); [cEt] = constrained ethyl (cEt); [sp] = phosphorothioate linkage

Molecular target: HBV
Conditions: ASO

Substance: RNA1{[cEt](T)[sp].d(T)[sp].[cEt](T)[sp].d(A)[sp].[cEt](T)[sp].d(G)[sp].d(C)[sp].d(C)[sp].d(T)[sp].d(A)[sp].d(C)[sp].d(A)[sp].d(G)[sp].d(C)[sp].[moe](C)[sp].[moe](T)}$$$$V2.0
- target mRNA inhibition (HepG2, 0.009375 µM): 12%
- target mRNA inhibition (HepG2, 0.01875 µM): 14%
- target mRNA inhibition (HepG2, 0.0375 µM): 32%
- target mRNA inhibition (HepG2, 0.075 µM): 47%
- target mRNA inhibition (HepG2, 0.15 µM): 62%
- target mRNA inhibition (HepG2, 0.3 µM): 77%

Substance: RNA1{[moe](A)[sp].[cEt](A)[sp].[cEt](C)[sp].d(A)[sp].d(A)[sp].d(A)[sp].d(T)[sp].d(G)[sp].d(G)[sp].d(C)[sp].d(A)[sp].d(C)[sp].d(T)[sp].[cEt](A)[sp].[cEt](G)[sp].[moe](T)}$$$$V2.0
- target mRNA inhibition (HepG2, 0.07 µM): 78% and 76%

Substance: RNA1{[moe](A)[sp].[cEt](A)[sp].[cEt](C)[sp].d(C)[sp].d(A)[sp].d(C)[sp].d(T)[sp].d(G)[sp].d(A)[sp].d(A)[sp].d(C)[sp].d(A)[sp].d(A)[sp].[cEt](A)[sp].[cEt](T)[sp].[moe](G)}$$$$V2.0
- target mRNA inhibition (HepG2, 0.07 µM): 64% and 51%

Substance: RNA1{[moe](A)[sp].[cEt](A)[sp].[cEt](C)[sp].d(T)[sp].d(G)[sp].d(G)[sp].d(A)[sp].d(G)[sp].d(C)[sp].d(C)[sp].d(A)[sp].d(C)[sp].d(C)[sp].[cEt](A)[sp].[cEt](G)[sp].[moe](C)}$$$$V2.0
- target mRNA inhibition (HepG2, 0.07 µM): 67% and 68%

Substance: RNA1{[moe](A)[sp].[cEt](A)[sp].[cEt](G)[sp].d(C)[sp].d(G)[sp].d(A)[sp].d(A)[sp].d(G)[sp].d(T)[sp].d(G)[sp].d(C)[sp].d(A)[sp].d(C)[sp].[cEt](A)[sp].[cEt](C)[sp].[moe](G)}$$$$V2.0
- target mRNA inhibition (HepG2, 0.0092593 µM): 28%
- target mRNA inhibition (HepG2, 0.0277778 µM): 57%
- target mRNA inhibition (HepG2, 0.07 µM): 80% and 85%
- target mRNA inhibition (HepG2, 0.0833333 µM): 80%
- target mRNA inhibition (HepG2, 0.25 µM): 89%

Substance: RNA1{[moe](A)[sp].[cEt](A)[sp].d(G)[sp].d(C)[sp].d(G)[sp].d(A)[sp].d(A)[sp].d(G)[sp].d(T)[sp].d(G)[sp].d(C)[sp].d(A)[sp].[cEt](C)[sp].[moe](A)[sp].[cEt](C)[sp].[moe](G)}$$$$V2.0
- target mRNA inhibition (HepG2, 0.0092593 µM): 20%
- target mRNA inhibition (HepG2, 0.0277778 µM): 40%
- target mRNA inhibition (HepG2, 0.07 µM): 82% and 75%
- target mRNA inhibition (HepG2, 0.0833333 µM): 75%
- target mRNA inhibition (HepG2, 0.25 µM): 89%

Substance: RNA1{[moe](A)[sp].[cEt](A)[sp].d(G)[sp].d(T)[sp].d(C)[sp].d(C)[sp].d(A)[sp].d(C)[sp].d(C)[sp].d(A)[sp].d(C)[sp].d(G)[sp].[cEt](A)[sp].[moe](G)[sp].[cEt](T)[sp].[moe](C)}$$$$V2.0
- target mRNA inhibition (HepG2, 0.07 µM): 43% and 40%

Substance: RNA1{[moe](A)[sp].[cEt](A)[sp].d(T)[sp].d(T)[sp].d(T)[sp].d(A)[sp].d(T)[sp].d(G)[sp].d(C)[sp].d(C)[sp].d(T)[sp].d(A)[sp].[cEt](C)[sp].[moe](A)[sp].[cEt](G)[sp].[moe](C)}$$$$V2.0
- target mRNA inhibition (HepG2, 0.07 µM): 60% and 59%

Substance: RNA1{[moe](A)[sp].[cEt](C)[sp].[cEt](T)[sp].d(A)[sp].d(G)[sp].d(T)[sp].d(A)[sp].d(A)[sp].d(A)[sp].d(C)[sp].d(T)[sp].d(G)[sp].d(A)[sp].[cEt](G)[sp].[cEt](C)[sp].[moe](C)}$$$$V2.0
- target mRNA inhibition (HepG2, 0.0092593 µM): 24%
- target mRNA inhibition (HepG2, 0.0277778 µM): 55%
- target mRNA inhibition (HepG2, 0.07 µM): 77% and 85%
- target mRNA inhibition (HepG2, 0.0833333 µM): 74%
- target mRNA inhibition (HepG2, 0.25 µM): 88%

Substance: RNA1{[moe](A)[sp].[cEt](C)[sp].d(G)[sp].d(T)[sp].d(G)[sp].d(C)[sp].d(A)[sp].d(G)[sp].d(A)[sp].d(G)[sp].d(G)[sp].d(T)[sp].[cEt](G)[sp].[moe](A)[sp].[cEt](A)[sp].[moe](G)}$$$$V2.0
- target mRNA inhibition (HepG2, 0.07 µM): 71% and 68%

Substance: RNA1{[moe](A)[sp].[cEt](G)[sp].[cEt](G)[sp].d(C)[sp].d(A)[sp].d(C)[sp].d(A)[sp].d(G)[sp].d(C)[sp].d(T)[sp].d(T)[sp].d(G)[sp].d(G)[sp].[cEt](A)[sp].[cEt](G)[sp].[moe](G)}$$$$V2.0
- target mRNA inhibition (HepG2, 0.07 µM): 12% and 37%

Substance: RNA1{[moe](A)[sp].[cEt](G)[sp].[cEt](T)[sp].d(C)[sp].d(C)[sp].d(A)[sp].d(C)[sp].d(C)[sp].d(A)[sp].d(C)[sp].d(G)[sp].d(A)[sp].d(G)[sp].[cEt](T)[sp].[cEt](C)[sp].[moe](T)}$$$$V2.0
- target mRNA inhibition (HepG2, 0.07 µM): 62% and 45%

Substance: RNA1{[moe](A)[sp].[cEt](G)[sp].d(A)[sp].d(G)[sp].d(G)[sp].d(T)[sp].d(G)[sp].d(A)[sp].d(A)[sp].d(G)[sp].d(C)[sp].d(G)[sp].[cEt](A)[sp].[moe](A)[sp].[cEt](G)[sp].[moe](T)}$$$$V2.0
- target mRNA inhibition (HepG2, 0.07 µM): 63% and 76%
